Assays:
[1] = target: GABRA2-GABRB2-GABRG2 chloride currents in HEK cells (Homo sapiens (Human), UniProt P18507+P47869); test: QPatch electrophysiological recording, % enhancement of GABA current (α2 PAM); assay type: cell-based; conditions: % enhancement of GABA current at approximately EC10 GABA, −60 mV, whole-cell patch clamp
Experimental: Human Embryonic Kidney (HEK) cells were transfected with a GABRA2-GABRB2-GABRG2 construct using standard techniques. Cells stably expressing the GABRA2-GABRB2-GABRG2 constructs were identified by their resistance to Geneticin G-418 (320 μg/ml), Hygromycin (160 μg/ml) and Zeocin (40 μg/ml). Clones were screened for expression using the BD Pathway 855 imaging system (BD Biosciences, Rockville, Md., USA) and QPatch automated electrophysiology platform (Sophion, Copenhagen, Denmark). […]
GABRA2-GABRB2-GABRG2 chloride currents in HEK cells were measured using the whole-cell configuration of the patch-clamp technique (Hamill et al., 1981). […]
All compounds were dissolved in dimethyl sulfoxide to make 30 mM or 10 mM stock solutions, which were then diluted to 1000 times the desired final concentration in dimethyl sulfoxide. […] Currents were recorded at −60 mV, using an approximately EC10 concentration of gamma-aminobutyric acid (GABA). […]
Compound effect (% enhancement of gamma-aminobutyric acid current) was calculated using the following formula: [((peak modulator current amplitude-leak)−(GABA current amplitude-leak))/(GABA current amplitude-leak)]*100, […]

[2] = target: GABRA1-GABRB3-GABRG2 construct in HEK cells (Homo sapiens (Human), UniProt P14867+P18507); test: QPatch electrophysiological recording, % enhancement of GABA current (α1 PAM); assay type: cell-based; conditions: % enhancement of GABA current at approximately EC10 GABA, −60 mV, whole-cell patch clamp
[3] = target: human recombinant GABA A receptor containing the alpha2, beta2, and gamma2 subunits (Homo sapiens (Human), UniProt P18507+P47869); test: Radioligand competition binding assay with [3H]Ro-15-1788 (Flumazenil); conditions: [3H]flumazenil competition, HEK cell membranes, geometric mean of at least two replicates; read-out: GABA-α2 Ki
Experimental: The affinity of the test compounds was determined by radioligand competition binding assay, using the known compound [3H]Ro-15-1788 (Flumazenil) (Perkin Elmer, 85.4 Ci/mmol) and the human recombinant GABA A receptor containing the alpha2, beta2, and gamma2 subunits.
Membranes were prepared from HEK cells expressing hGABA A alpha2beta2-gamma2 receptor, and validated to ascertain protein concentration, receptor expression and to determine the Kd of the flumazenil as well as the Ki of a standard set of compounds before being used to test new compounds.
The assay was carried out in 96 well plates; testing compounds using a 10 point semi-log dilution range from 19 uM top concentration. 100 ul of radioligand and 100 ul of membrane in 50 mM Tris-HCl and 0.05% F127 with 1 ul of test compound was incubated for 2 hours to allow the reaction to achieve equilibrium, and then harvested onto filter plates, dried and counted on a TopCount NXT. The data was analysed, and the Ki values were presented as the geometric mean of at least two replicates.

Row | α2 PAM [1] [%] | α1 PAM [2] [%] | Ki [3] [nM] | Compound
1 | 109 | 52 | 17.5 | CCn1ncc2c(-c3ccc(F)c(-c4ccc(S(=O)(=O)CC)cc4)c3)cnnc21 [Example 2, 4-(4′-Ethanesulfonyl-6-fluorobiphenyl-3-yl)-1-ethyl-1H-pyrazolo[3,4-c]pyridazine]
2 | 109 | 18 | < 0.6 | CCn1ncc2c(-c3ccc(F)c(-c4ccc(S(=O)(=O)CC)cc4OC)c3)cnnc21 [Example 1, 4-(4′-Ethanesulfonyl-6-fluoro-2′-methoxybiphenyl-3-yl)-1-ethyl-1H-pyrazolo[3,4-c]pyridazine]

— patent US10538523B2, “4-(biphen-3-yl)-1H-pyrazolo[3,4-c]pyridazine derivatives of formula (I) as GABA receptor modulators for use in the treatment of epilepsy and pain” (PFIZER LIMITED, priority 2015, dated 2020)
